The source of these data is patent US8487103B2 (Roche Palo Alto LLC, priority 2009, dated 2013).

The nature of one series: in vitro. The note with it: human.
Series [1] deals with T1, HCV polymerase (NS5B570n-Con1) (Hepatitis C virus genotype 1b, UniProt Q9WMX2).
T1 construct: contains a 21 amino acid deletion at the C-terminus relative to the full-length HCV polymerase; 6-histidine (N); made in house; host or cells: E. coli BL21(DE) pLysS, plasmid pET 17b
Briefly: HCV NS5B RNA Polymerase Activity. In kind it is biochemical, HCV Con1 strain. How it is done:
The enzymatic activity of HCV polymerase (NS5B570n-Con1) was measured as the incorporation of radiolabeled nucleotide monophosphates into acid insoluble RNA products. Unincorporated radiolabeled substrate was removed by filtration and scintillant was added to the washed and dried filter plate containing radiolabeled RNA product. The amount of RNA product generated by NS5B570-Con1 at the end of the reaction was directly proportional to the amount of light emitted by the scintillant.
The N-terminal 6-histidine tagged HCV polymerase, derived from HCV Con1 strain, genotype 1b (NS5B570n-Con1) contains a 21 amino acid deletion at the C-terminus relative to the full-length HCV polymerase and was purified from E. coli strain BL21(DE) pLysS. The construct, containing the coding sequence of HCV NS5B Con1 (GenBank accession number AJ242654) was inserted into the plasmid construct pET 17b, downstream of a T7 promoter expression cassette and transformed into E. coli. A single colony was grown overnight as a starter culture and later used inoculate 10 L of LB media supplemented with 100 μg/mL ampicillin at 37° C. Protein expression was induced by the addition of 0.25 mM isopropyl-β-D-thiogalactopyranoside (IPTG) when optical density at […] of the culture was between 0.6 and 0.8 and cells were harvested after 16 to 18 h at 30° C. NS5B570n-Con1 was purified to homogeneity using a three-step protocol including subsequent column chromatography on Ni-NTA, SP-Sepharose HP and Superdex 75 resins.
Each 50 μL enzymatic reaction contained 20 nM RNA template derived from the complementary sequence of the Internal Ribosome Entry Site (cIRES), 20 nM NS5B570n-Con1 enzyme, 0.5 μCi of tritiated UTP (Perkin Elmer catalog no. TRK-412; specific activity: 30 to 60 Ci/mmol; stock solution concentration from 7.5×10^−5 M to 20.6×10^−6 M), 1 μM each ATP, CTP, and GTP, 40 mM Tris-HCl pH 8.0, 40 mM NaCl, 4 mM DTT (dithiothreitol), 4 mM MgCl2, and 5 μl of compound serial diluted in DMSO. Reaction mixtures were assembled in 96-well filter plates (cat #MADVN0B, Millipore Co.) and incubated for 2 h at 30° C. Reactions were stopped by addition of 10% final (v/v) trichloroacetic acid and incubated for 40 min at 4° C. Reactions were filtered, washed with 8 reaction volumes of 10% (v/v) trichloroacetic acetic acid, 4 reaction volumes of 70% (v/v) ethanol, air dried, and 25 μl of scintillant (Microscint 20, Perkin-Elmer) was added to each reaction well.
The amount of light emitted from the scintillant was converted to counts per minute (CPM) on a Topcount® plate reader (Perkin-Elmer, Energy Range: Low, Efficiency Mode Normal, Count Time: 1 min, Background Subtract: none, Cross talk reduction: Off).
Data was analyzed in Excel® (Microsoft) and ActivityBase® (Idbs®). The reaction in the absence of enzyme was used to determine the background signal, which was subtracted from the enzymatic reactions. Positive control reactions were performed in the absence of compound, from which the background corrected activity was set as 100% polymerase activity. All data was expressed as a percentage of the positive control. The compound concentration at which the enzyme-catalyzed rate of RNA synthesis was reduced by 50% (IC50) was calculated by fitting equation (i) to the data where“Y”
[formula] corresponds to the relative enzyme activity (in %), “% Min” is the residual relative activity at saturating compound concentration, “% Max” is the relative maximum enzymatic activity, “X” corresponds to the compound concentration, and “S” is the Hill coefficient (or slope).

Series [2] has as its system HCV replicon cells (2209-23), genotype 1b replicon. Briefly: HCV Replicon Assay (Renilla luciferase reporter). In kind it is cell-based, HCV genotype 1b. The note with it: Hepatitis C virus, 72 h; cell line 2209-23, luciferase activity after three days.
The subject of the next series is HCV. The following applies: cited from earlier work.

In the case of `COc1c(C(C)(C)C)cc(-c2ccc[nH]c2=O)c2ncc(N3CC[C@H](CNS(C)(=O)=O)C3)cc12` [Compound I-18, N-{(S)-1-[6-tert-Butyl-5-methoxy-8-(2-oxo-1,2-dihydro-pyridin-3-yl)-quinolin-3-yl]-pyrrolidin-3-ylmethyl}-methanesulfonamide], the melting point lay within 275 to 280 °C. Besides, in “in vitro”, the CC50 at 3 days was 30300 nM. In series [1], this molecule returned an IC50 of 0.2 nM. The molecule further gave an IC50 in series [2] of 5.2 nM.

Regarding `NC(=O)c1ncn([C@@H]2O[C@H](CO)[C@@H](O)[C@H]2O)n1` [ribavirin, 1-((2R,3R,4S,5R)-3,4-Dihydroxy-5-hydroxymethyl-tetrahydro-furan-2-yl)-1H-[1,2,4]triazole-3-carboxylic acid amide], the “serum amino transferase levels reduced to normal, share of patients” value with HCV (monotherapy) was 40%. In addition, the “effect on serum HCV-RNA” value with HCV (sole treatment / monotherapy) is on record as “does not lower serum levels of HCV-RNA”.

As for `Cc1ccc(-c2nc(C(C)(C)C)cc3cc(-c4ccc(NS(C)(=O)=O)cc4)ccc23)c(=O)[nH]1` [Compound I-48, N-{4-[3-tert-Butyl-1-(6-methyl-2-oxo-1,2-dihydro-pyridin-3-yl)-isoquinolin-6-yl]-phenyl}-methanesulfonamide], the concentration for half-maximal inhibition (IC50) in series [2] amounted to 27.4 nM.

On to `COc1c(C(C)(C)C)cc(-n2ccc(=O)[nH]c2=O)c2ncc(-c3ccc(NS(C)(=O)=O)cc3)cc12` [Compound I-21, N-{4-[6-tert-Butyl-8-(2,4-dioxo-3,4-dihydro-2H-pyrimidin-1-yl)-5-methoxy-quinolin-3-yl]-phenyl}-methanesulfonamide], for which the melting point was 277 to 281 °C. The molecule also showed an IC50 in series [1] of 2.2 nM. In series [2], this molecule displayed an IC50 of 0.3 nM.
